Experimental data taken from patent publication US7790732B2, “5-Chloro-4-alkyl-3,4-dihydro-quinazolin-2-ylamine derivatives” (Hoffman-La Roche Inc., priority 2005, dated 2010).

Target: T1, recombinant human 5-HT5A receptor (Homo sapiens, UniProt P47898)
T1 construct: expressed in transfected cells; host or cells: HEK-EBNA (Human Embryonic Kidney-EBNA) cells, transient cDNA expression, membranes
Experiment: [3H]LSD radioligand binding assay, recombinant human 5-HT5A receptor in HEK-EBNA cell membranes
Conditions: [3H]LSD approximately 1 nM; membranes from HEK-EBNA cells; Ki from IC50 by the Cheng-Prussoff equation
Experimental: A [^3H] LSD radioligand binding assay was used to determine the affinity of the compounds for the recombinant human 5-HT5A receptor in membranes from transiently (cDNA) expressed 5-HT5A receptors in Human Embryonic Kidney-EBNA (HEK-EBNA) cells. Assay buffer consisted of Tris (50 mM) buffer containing 1 mM EGTA, 10 mM MgCl2 (pH 7.4) and 10 μM pargyline. The binding assay was carried out in 96-well-plates in the presence of [^3H]LSD (approximately 1 nM), approximately 2 μg/well of membrane protein, and 0.5 mg of Ysi-poly-1-lysine SPA beads in a final volume of 200 μl of buffer. Non-specific binding was defined using methiothepin 2 μM. Compounds were tested at 10 concentrations. All assays were conducted in duplicate and repeated at least two times. Assay plates were incubated for 120 min at room temperature before centrifugation. Bound ligand was determined using a Packard Topcount scintillation counter. IC50 values were calculated using a non-linear curve fitting program, and Ki values were calculated using the Cheng-Prussoff equation.

T1 sequence (P47898 whole entry): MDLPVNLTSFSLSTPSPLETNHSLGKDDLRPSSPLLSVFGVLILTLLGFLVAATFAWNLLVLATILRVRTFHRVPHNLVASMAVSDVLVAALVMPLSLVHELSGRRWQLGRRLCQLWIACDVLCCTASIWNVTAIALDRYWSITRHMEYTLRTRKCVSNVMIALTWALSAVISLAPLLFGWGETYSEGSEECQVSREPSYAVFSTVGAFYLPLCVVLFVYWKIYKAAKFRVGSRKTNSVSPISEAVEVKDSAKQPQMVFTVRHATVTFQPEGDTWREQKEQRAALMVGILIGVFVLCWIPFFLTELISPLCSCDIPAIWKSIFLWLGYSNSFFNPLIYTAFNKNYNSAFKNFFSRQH

Ki [nM]	SMILES
5.13	CC1NC(N)=Nc2cccc(Cl)c21 (stereo not shown) [Example 1, 5-Chloro-4-methyl-3,4-dihydro-quinazolin-2-ylamine]
10.8	CNC1=Nc2cccc(Cl)c2C(C)N1 (stereo not shown) [Example 2, (5-Chloro-4-methyl-3,4-dihydro-quinazolin-2-yl)-methyl-amine]
15.5	CC1NC(NC2CCC2)=Nc2cccc(Cl)c21 (stereo not shown) [Example 3, (5-Chloro-4-methyl-3,4-dihydro-quinazolin-2-yl)-cyclobutyl-amine]
10.1	CC1NC(NCC(F)F)=Nc2cccc(Cl)c21 (stereo not shown) [Example 5, (5-Chloro-4-methyl-3,4-dihydro-quinazolin-2-yl)-(2,2-difluoro-ethyl)-amine]
2	CC1NC(N)=Nc2ccc(Cl)c(Cl)c21 (stereo not shown) [Example 8, 5,6-Dichloro-4-methyl-3,4-dihydro-quinazolin-2-ylamine]
6.34	CNC1=Nc2ccc(Cl)c(Cl)c2C(C)N1 (stereo not shown) [Example 9, (5,6-Dichloro-4-methyl-3,4-dihydro-quinazolin-2-yl)-methyl-amine]
5.67	CC1NC(NCC(F)F)=Nc2ccc(Cl)c(Cl)c21 (stereo not shown) [Example 10, (5,6-Dichloro-4-methyl-3,4-dihydro-quinazolin-2-yl)-(2,2-difluoro-ethyl)-amine]
6.9	CC1NC(NC2CCC2)=Nc2ccc(Cl)c(Cl)c21 (stereo not shown) [Example 15, Cyclobutyl-(5,6-dichloro-4-methyl-3,4-dihydro-quinazolin-2-yl)-amine]
8.87	CC(=O)NCCNC1=Nc2ccc(Cl)c(Cl)c2C(C)N1 (stereo not shown) [Example 16, N-[2-(5,6-Dichloro-4-methyl-3,4-dihydro-quinazolin-2-ylamino)-ethyl]-acetamide]
13.9	CCCCCNC1=Nc2ccc(Cl)c(Cl)c2C(C)N1 (stereo not shown) [Example 18, (5,6-Dichloro-4-methyl-3,4-dihydro-quinazolin-2-yl)-pentyl-amine]
6.9	COCCCNC1=Nc2ccc(Cl)c(Cl)c2C(C)N1 (stereo not shown) [Example 19, (5,6-Dichloro-4-methyl-3,4-dihydro-quinazolin-2-yl)-(3-methoxy-propyl)-amine]
17.8	CC1NC(NCC2COCCO2)=Nc2ccc(Cl)c(Cl)c21 (stereo not shown) [Example 21, (5,6-Dichloro-4-methyl-3,4-dihydro-quinazolin-2-yl)-[1,4]dioxan-2-ylmethyl-amine]
5.85	CC1NC(N)=Nc2c(Cl)ccc(Cl)c21 (stereo not shown) [Example 23, 5,8-Dichloro-4-methyl-3,4-dihydro-quinazolin-2-ylamine]
